Patent EP2068894B1, “USE OF CIS-RHENIUM (III) DI[…] FOR POTENTIATING THE A[…] OF PLATINIUM COMPLEXES” (SOCIETE DE CO[…] RECHERCHES THERAPEUTIQUES, priority 2006, dated 2007)

Assays:
Type in all cases: in vivo, Wistar rats
[1] = test system: tumor carcinoma Guerink (T8) cells; experiment: Tumor growth in rats inoculated with tumor carcinoma Guerink (T8) cells; details: for Weight of isolated tumors: day 21 after tumor cells inoculation, cisplatin 8 mg/kg i.p. single on day 9, Re2 7µM/kg i.p. in liposome forms every 2 days from day 3 to day 21; for tumor growth / measured tumor volumes: in comparison to control group, volumes assessed from day 7
Description: (§1) Wistar rats weighting 100-120 g were inoculated by tumor carcinoma Guerink (T8) cells (Experimental Oncology, 2003, Vol. 25, pp64-68). The cells were taken in the Institute of Oncology and Experimental Pathology by R.E.Kavetskiy (Kiev). The single intraperitoneal administration of Cisplatin at the dose of 8 mg/kg was made on the 9 day after the tumor inoculation according to the method disclosed by Taylor S.K. in Medical Hypothesis 2003; 60; n°1, pp 89-93. The intraperitoneal administration of the Re2 at the dose of 7µM/kg according to the schema of antioxidant therapy [Meerson F.Z. et al. Pat. Physiol. and Exp. Therap.(Rus) 1983;N5:25-9] in liposome forms [Sktemenko et al. Ukr.Biokhim.Journal (Ukr) 2002;74,N°6:38-43] began on the 3 day after the inoculation of the tumor cells and was repeated every 2 days until day 21. Body weights were measured from day 2 after tumor inoculation, the volume of tumors were assessed from the day 7. On the day 21 animals were sacrified under chlorophormium anesthesia and the tumors were isolated and weighted. Concentrations of hemoglobin (Hb) and quantity of red blood cells (RBC) were measured according to the method described by Chevary et al. in Laboratornoe delo (Rus) 1991;N°10:9-13
(§2) Four groups of 15 animals in each were compared: control group; group with introduction of cisplatin; group with introduction of Re2; and group with introduction of cisplatin together with Re2. Wilcoxon non parametric tests were used to compare the tumor volumes according to the absence of treatment and each group of treatment or between 2 treated groups. Growth of the tumors in control group was very rapid and reached […] and occupied approximately 1/3 of the animal weight. Dynamics of tumor growth is represented on the Figure 1.

RBC = experiment: Morphological forms of red blood cells in blood of tumor-bearing rats; details: day 21 after tumor cells inoculation; for Damaged RBC / Discocytes / Echinocytes: morphological forms of RBC in blood
Description: as §1, §2

[2] = Hemoglobin concentration in blood of tumor-bearing rats; details: for concentration of Hb: blood, day 21 after tumor cells inoculation, cisplatin 8 mg/kg i.p. day 9, Re2 7µM/kg i.p. every 2 days from day 3
Description: as §1, §2

cis-[Re2(AdCOO)2Cl4].2CH3CN
Weight of isolated tumors [1]: 38.27 ± 16.77 g
tumor growth / measured tumor volumes [1]: did not prevent tumor growth but caused a little delay in progression of growth
morphological picture of RBC, result in words (RBC): supported quantities of discocytes and echinocytes on a rather high level
Damaged RBC (RBC): 21.53 ± 2.34%
Discocytes (RBC): 56.33 ± 4.32%
Echinocytes (RBC): 22.14 ± 2.16%
concentration of Hb [2]: 72.02 ± 11.12 g/L

N.N.[Cl][Pt][Cl] [cisplatin]
Weight of isolated tumors [1]: 9.88 ± 9.90 g
tumor growth / measured tumor volumes [1]: significant decrease in measured tumor volumes
Damaged RBC (RBC): 28.65 ± 3.98%
Discocytes (RBC): 46.36 ± 3.18%
Echinocytes (RBC): 24.99 ± 3.84%
concentration of Hb [2]: 129.49 ± 12.43 g/L
hemoglobin, result in words ([2]; in comparison to control group, day 21): significant increase in hemoglobin
